# Reference: paper PMC9105976, “A Novel β-Hairpin Peptide Z-d14CFR Enhances Multidrug-Resistant Bacterial Clearance in a Murine Model of Mastitis” (International Journal of Molecular Sciences, 2022)
# Marks after values point to notes of the source that are not given here. No end group written: not given here.
# What was measured:
# MRSA ATCC33591 = assay: MIC/MBC, microdilution broth method; format: cell-based, S. aureus
# Procedure, shortened: (§1)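 Bacteria grown to OD600 0.6 were diluted in 10 mM PBS to 1 × 10^6 CFU/mL and mixed with an equal volume of peptide, ampicillin or gentamicin, added at 0.001 to 2 mg/mL before mixing.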
# [1] = test system: Staphylococcus haemolyticus CAU202078; assay: MIC/MBC, microdilution broth method; format: cell-based; conditions: Staphylococcus haemolyticus CAU202078 (MDR isolate)
# Procedure, shortened: as §1
# [2] = test system: Klebsiella pneumoniae CAU202084; assay: MIC/MBC, microdilution broth method; format: cell-based; conditions: Klebsiella pneumoniae CAU202084 (MDR isolate)
# Procedure, shortened: as §1
# [3] = test system: Streptococcus suis CVCC3307; assay: MIC/MBC, microdilution broth method; format: cell-based; conditions: Streptococcus suis CVCC3307
# Procedure, shortened: as §1
# [4] = test system: Salmonella typhimurium ATCC14028; assay: MIC/MBC, microdilution broth method; format: cell-based; conditions: Salmonella typhimurium ATCC14028
# Procedure, shortened: as §1
# [5] = test system: Bacillus cereus CAU 202020; assay: MIC/MBC, microdilution broth method; format: cell-based; conditions: Bacillus cereus CAU 202020 (MDR isolate)
# Procedure, shortened: as §1
# [6] = test system: Escherichia coli CAU 201920; assay: MIC/MBC, microdilution broth method; format: cell-based; conditions: Escherichia coli CAU 201920 (MDR isolate)
# Procedure, shortened: as §1
# [7] = test system: Proteus vulgaris CVCC1971; assay: MIC/MBC, microdilution broth method; format: cell-based; conditions: Proteus vulgaris CVCC1971
# Procedure, shortened: as §1
# [8] = test system: Escherichia coli CAU 201919; assay: MIC/MBC, microdilution broth method; format: cell-based; conditions: Escherichia coli CAU 201919 (MDR isolate)
# Procedure, shortened: as §1
# [9] = test system: Staphylococcus aureus ATCC29213; assay: MIC/MBC, microdilution broth method; format: cell-based; conditions: Staphylococcus aureus ATCC29213
# Procedure, shortened: as §1
# [10] = test system: Escherichia coli ATCC25922; assay: MIC/MBC, microdilution broth method; format: cell-based; conditions: Escherichia coli ATCC25922
# Procedure, shortened: as §1
# [11] = test system: Escherichia coli CVCC1450; assay: MIC/MBC, microdilution broth method; format: cell-based; conditions: Escherichia coli CVCC1450
# Procedure, shortened: as §1
# [12] = test system: Gram-positive and Gram-negative bacteria; assay: Antimicrobial activity, statements over the bacterial panel; format: cell-based; conditions: data not shown
# Experimental: The MIC of peptides against bacteria was carried out by the microdilution broth method. The bacterial culture (OD 600 = 0.6) was diluted in 10 mM PBS to 1 × 10^6 CFU/mL. […]
# [13] = Retention time of peptide in HPLC (hydrophobicity); format: physicochemical; conditions: used as measure of hydrophobicity (order Z-d14CR > Z-d14CF > Z-d13 > Z-d14CFR > Z-d14C); column and gradient not given
# [14] = 1 × 10^6 CFU/mL, 18 h at 37 °C, NA = no antimicrobial activity at 1 mg/mL
# [15] = kills 99.9% bacteria, NA = no activity at 1 mg/mL
# [16] = minimum concentration which kills 99.9% bacteria, NA = no activity at 1 mg/mL
substance,measurement,setting,value
"GGYCNSKSVCVCR-NH2 (disulfide (positions not given here)) [Z-d13, Z. atratus defensin β-sheet region analogue, …-NH2]",MIC,"MRSA ATCC33591; MRSA (methicillin-resistant S. aureus) ATCC33591, 1 × 10^6 CFU/mL, 18 h at 37 °C, NA = no antimicrobial activity at 1 mg/mL",NA (NA) (No antimicrobial activity at 1 mg/mL)
same,MBC,"MRSA ATCC33591; MRSA ATCC33591, kills 99.9% bacteria, NA = no activity at 1 mg/mL",NA (NA) (No antimicrobial activity at 1 mg/mL)
same,MIC,[1]; [14],NA (NA) (No antimicrobial activity at 1 mg/mL)
same,MBC,[1]; [15],NA (NA) (No antimicrobial activity at 1 mg/mL)
same,MIC,[2]; [14],NA (NA) (No antimicrobial activity at 1 mg/mL)
same,MBC,[2]; [15],NA (NA) (No antimicrobial activity at 1 mg/mL)
same,MIC,[3]; [14],NA (NA) (No antimicrobial activity at 1 mg/mL)
same,MBC,[3]; [15],NA (NA) (No antimicrobial activity at 1 mg/mL)
same,MIC,[4]; [14],NA (NA) (No antimicrobial activity at 1 mg/mL)
same,MBC,[4]; [15],NA (NA) (No antimicrobial activity at 1 mg/mL)
same,MIC,[5]; [14],NA (NA) (No antimicrobial activity at 1 mg/mL)
same,MBC,[5]; [15],NA (NA) (No antimicrobial activity at 1 mg/mL)
same,MIC,[6]; [14],NA (NA) (No antimicrobial activity at 1 mg/mL)
same,MBC,[6]; [15],NA (NA) (No antimicrobial activity at 1 mg/mL)
same,MIC,[7]; [14],NA (NA) (No antimicrobial activity at 1 mg/mL)
same,MBC,[7]; [15],NA (NA) (No antimicrobial activity at 1 mg/mL)
same,MIC,[8]; [14],NA (NA) (No antimicrobial activity at 1 mg/mL)
same,MBC,[8]; [15],NA (NA) (No antimicrobial activity at 1 mg/mL)
same,MIC,[9]; [14],NA (NA) (No antimicrobial activity at 1 mg/mL)
same,MBC,[9]; [15],NA (NA) (No antimicrobial activity at 1 mg/mL)
same,MIC,[10]; [14],NA (NA) ^c (No antimicrobial activity at 1 mg/mL)
same,MBC,[10]; [16],NA (NA) ^c (No antimicrobial activity at 1 mg/mL)
same,MIC,[11]; [14],NA (NA) (No antimicrobial activity at 1 mg/mL)
same,MBC,[11]; [16],NA (NA) (No antimicrobial activity at 1 mg/mL)
same,activity against bacteria at 3 mg/mL,[12],slight activity
same,"RT, retention time of peptide in HPLC",[13],9.077 min
